Measurements taken from patent US4198512A, “1-Oxo-1,2-dihydroisoquinoline derivatives” (Yamanouchi Pharmaceutical Co., Ltd., priority 1977, dated 1980).

Columns and labels:
[1] = Whittle's method, writhing (acetic acid); assay type: in vivo, Male ICR-Mice; conditions: 50 mg/kg P.O., mice; 0.6% acetic acid i.p.
Experimental: (§1) Male ICR-Mice (weighting 25-35 g.), one group being 12 mice, fasted overnight were used in this test. The sample was orally administered, and 20 minutes after, 5 ml./Kg. of 0.4% Evance blue was injected intravenously and 10 minutes thereafter, 10 ml./Kg. of 0.6% acetic acid was injected intraperitoneally. The number of writhings after 20 minutes following the administration of acetic acid was recorded and after an additional 10 minutes, the mice were killed by dislocation of the neck, the dye leaked in the abdominal cavity was washed out with 5 ml. of 0.9% saline to make the total amount 10 ml., and thereafter furs, blood corpuscles, etc., intermingled were removed by centrifugal separation at 3,000 r.p.m. for 5 minutes. Furthermore, to prevent turbidity caused by protein, 0.1 ml. of an aqueous 0.1 normal sodium hydroxide was added and then the absorbance at 590 nm was measured. The inhibition ratio of the sample administered rat groups to control groups was calculated.

[2] = 50 mg/kg
Experimental: as §1

[3] = Carrageenin-induced edema; assay type: in vivo, Male Wister rats; conditions: oral, 1 h before carrageenin, rat hind paw, 3 h
Experimental: (a) Carrageenin-induced edema
Male Wister rats (weighing 130-170 g.), one group being 6 rats, fasted overnight were used. According to Winter's method [Proc. Soc. Exp. Biol. Med., 111,544 (1962)], 0.1 ml. of 1% carrageenin [Iwai Kagaku Yakuhin K.K. Seakem] suspension in 0.9% saline was injected into the planter tissue of the left hind paw. After 3 hours, each rat was sacrificed by chloroform and the hind paw was cut and weighed immediately. By using the value obtained by subtracting the weight of the untreated hind paw from the weight of the hind paw having injected therein the carrageenin as the weight of edema, the inhibitory ratio of the sample administered rat groups to control groups was calculated. The sample was orally administered before one hour of the injection of Carrageenin.
In addition, the test samples used in the aforesaid tests (a) and (b) were prepared by suspending the test compounds in an aqueous 0.5% methyl cellulose solutions.

| SMILES | Inhibition (%) Writhing [1] | Inhibition (%) Permeability [2] | Inhibition (Carrageenin-induced edema) ([3]; 100 mg/kg) | Inhibition (Carrageenin-induced edema) ([3]; 50 mg/kg) |
| --- | --- | --- | --- | --- |
| Cc1c(N(C)C)c(=O)n(-c2ccccc2)n1C [Aminopyrine, reference compound] | 58.1% | 41.7% | – | – |
| CSc1cc2ccccc2c(=O)n1C [Ex. 1, 2-methyl-3-methylthio-1-oxo-1,2-dihydroisoquinoline] | – | – | 57.3% | – |
| CCn1c(SC)cc2ccccc2c1=O [Ex. 2, 2-ethyl-3-methylthio-1-oxo-1,2-dihydroisoquinoline] | – | – | – | 38.5% |
| Cn1c([S+](C)[O-])cc2ccccc2c1=O (centres unmarked) [Ex. 4, 2-methyl-3-methylsulfinyl-1-oxo-1,2-dihydroisoquinoline] | 39.7% | 42.8% | 68.2% | 55.8% |
| Cn1c(S(C)(=O)=O)cc2ccccc2c1=O [Ex. 5, 2-methyl-3-methylsulfonyl-1-oxo-1,2-dihydroisoquinoline] | 45.8% | 47.1% | 68.1% | 50.7% |
| CCCCC1C(=O)N(c2ccccc2)N(c2ccccc2)C1=O [Phenyl butazone, reference compound] | – | – | 51.2% | 44.5% |
